# Laboratory results as given in the supplement of paper PMC10307832.
# Experiments:
# Test in all cases: relative viability (nuclei count vs DMSO), 5 days (fraction); higher = more cells survive
# EHT 1864 = compound: C1COCCN1CC2=CC(=O)C(=CO2)OCCCCCSC3=C4C=CC(=CC4=NC=C3)C(F)(F)F [EHT 1864]
# Procedure, shortened: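 Vehicle-anchored 1536-well plates of lung cancer cell lines, held overnight at 37 °C, were pinned with five library-drug doses (not always all listed) spaced by √10. No medium change followed over the next 5 days, after which the cells were fixed, permeabilised and Hoechst-stained together and imaged at 4×. Nuclei were counted with MetaXpress, and viability is treated-well nuclei over vehicle-well nuclei, taken as a median across plates. Plates passed with control CV below 25% and at least one doubling.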
# EHT 1864 + Trametinib = compound: C1COCCN1CC2=CC(=O)C(=CO2)OCCCCCSC3=C4C=CC(=CC4=NC=C3)C(F)(F)F [EHT 1864] + CC(=O)Nc1cccc(-n2c(=O)n(C3CC3)c(=O)c3c(Nc4ccc(I)cc4F)n(C)c(=O)c(C)c32)c1 [Trametinib] (partner 0.02 µM)
# Procedure, shortened: (§1)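 Lung cancer cell lines were seeded in 1536-well plates and dosed by pin tool the next day, with either a single drug or a fixed anchor-drug dose combined with five library-drug doses (not always all listed) spaced in √10 steps. Five days later, one step fixed the cells and stained their nuclei (final 0.05% Triton X-100, 1% formaldehyde, 1 ug/ml Hoechst), and nuclei were counted on 4× images. Relative viability is the nuclei count in treated wells divided by the count in vehicle wells, and each value is the median of duplicate plates.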
# EHT 1864 + Phenformin = compound: C1COCCN1CC2=CC(=O)C(=CO2)OCCCCCSC3=C4C=CC(=CC4=NC=C3)C(F)(F)F [EHT 1864] + N=C(N)NC(=N)NCCc1ccccc1 [Phenformin] (partner 250 µM)
# Procedure, shortened: as §1
# EHT 1864 + Olaparib = compound: C1COCCN1CC2=CC(=O)C(=CO2)OCCCCCSC3=C4C=CC(=CC4=NC=C3)C(F)(F)F [EHT 1864] + O=C(c1cc(Cc2n[nH]c(=O)c3ccccc23)ccc1F)N1CCN(C(=O)C2CC2)CC1 [Olaparib] (partner 8 µM)
# Procedure, shortened: as §1
Cell Line,relative viability (EHT 1864; 0.04 µM),relative viability (EHT 1864; 0.1265 µM),relative viability (EHT 1864; 0.4 µM),relative viability (EHT 1864; 1.265 µM),relative viability (EHT 1864; 4 µM),relative viability (EHT 1864 + Trametinib; first compound 0.04 µM),relative viability (EHT 1864 + Trametinib; first compound 0.1265 µM),relative viability (EHT 1864 + Trametinib; first compound 0.4 µM),relative viability (EHT 1864 + Trametinib; first compound 1.265 µM),relative viability (EHT 1864 + Trametinib; first compound 4 µM),relative viability (EHT 1864 + Phenformin; first compound 0.04 µM),relative viability (EHT 1864 + Phenformin; first compound 0.1265 µM),relative viability (EHT 1864 + Phenformin; first compound 0.4 µM),relative viability (EHT 1864 + Phenformin; first compound 1.265 µM),relative viability (EHT 1864 + Phenformin; first compound 4 µM),relative viability (EHT 1864 + Olaparib; first compound 0.04 µM),relative viability (EHT 1864 + Olaparib; first compound 0.1265 µM),relative viability (EHT 1864 + Olaparib; first compound 0.4 µM),relative viability (EHT 1864 + Olaparib; first compound 1.265 µM),relative viability (EHT 1864 + Olaparib; first compound 4 µM)
NCI-H1395,0.933,0.752,1.01,0.86,0.861,1.07,0.908,0.977,0.978,1.08,0.518,0.422,0.45,0.474,0.431,0.472,0.548,0.48,0.488,0.459
HCC-827,1.03,0.821,1.07,0.99,1.02,0.618,0.611,0.597,0.555,0.548,0.407,0.347,0.396,0.432,0.329,0.79,0.641,0.625,0.652,0.633
ChaGo-K-1,1.02,0.976,0.996,0.95,0.992,0.839,0.85,0.89,0.911,0.871,0.497,0.427,0.544,0.48,0.463,0.403,0.442,0.443,0.406,0.349
NCI-H2228,0.974,0.876,0.934,0.776,1,0.553,0.566,0.389,,0.533,0.37,0.232,0.345,0.288,0.52,0.614,0.661,0.66,,0.61
NCI-H358,0.888,0.834,1.06,0.939,0.933,0.138,0.126,0.153,0.14,0.124,0.328,0.338,0.367,0.345,0.303,0.626,0.594,0.574,0.551,0.548
EMC-BAC-2,1.02,0.896,1.04,0.993,0.971,0.759,0.721,0.889,0.924,0.99,0.549,0.48,0.558,0.502,0.486,0.616,0.467,0.436,0.464,0.458
NCI-H522,0.845,0.939,0.996,1,0.855,0.756,0.917,0.836,0.722,0.756,0.538,0.613,0.605,0.571,0.4,0.719,0.66,0.63,0.666,0.734
NCI-H23,0.909,0.696,0.912,1.02,1.03,0.347,0.413,0.31,0.396,0.419,0.778,0.477,0.784,0.604,0.775,0.295,0.271,0.284,0.296,0.32
RERF-LC-KJ,1.02,0.928,0.936,0.994,0.956,0.896,0.868,0.866,0.826,0.832,0.381,0.428,0.453,0.393,0.404,0.902,0.86,0.849,0.913,0.76
SK-MES-1,0.97,0.943,1.02,0.967,0.974,0.539,0.498,0.518,0.537,0.518,0.726,0.67,0.605,0.577,0.602,0.768,0.765,0.775,0.737,0.698
LC-2-ad,0.966,0.716,1.03,0.946,0.934,0.91,0.816,0.895,0.868,0.79,0.574,,0.632,0.64,0.696,0.602,0.671,0.657,0.671,0.625
HCC-15,1.03,,0.976,0.941,1,0.404,,0.362,0.362,0.41,0.491,,0.461,0.383,0.52,0.717,,0.678,0.685,0.706
NCI-H2405,1.07,1,0.994,0.821,0.994,0.688,0.587,0.744,0.644,0.612,0.445,0.42,0.44,0.289,0.37,0.895,0.815,0.912,0.788,0.853
LXF-289,0.961,0.932,0.95,0.961,0.886,0.676,0.609,0.615,0.616,0.657,0.517,0.463,0.507,0.549,0.547,1.12,0.963,1.02,0.953,0.97
CAL-12T,1.02,0.902,0.991,0.963,0.887,0.35,0.287,0.333,0.399,0.39,0.582,0.574,0.662,0.583,0.596,0.702,0.642,0.721,0.706,0.611
